This note sets out measurements from patent US11311609B2, “Regulating chimeric antigen receptors” (DANA-FARBER CANCER INSTITUTE, INC., priority 2017, dated 2022).

What all share (assay type): cell-based
For one experiment, the target named is T1, FKBP* (Homo sapiens, UniProt P62942, F37V).
T1 construct: HA; expressed in transfected cells; host or cells: 293FT cells (CRBN-WT or CRBN-/-)
Briefly: Immunoblot of FKBP* degradation in 293FT cells (CRBN-WT or CRBN-/-). The following applies: 293FT CRBN-WT; pretreated two hours with 1 uM Carfilzomib, 0.5 uM MLN4924 or 10 uM Lenalidomide, then 4 hour dFKBP13. As to the method: FIG. 6 is an immunoblot of cells treated with bi-functional molecules described in the present invention. As described in Example 3, 293FT cells (CRBN-WT or CRBN−/−) expressing either HA-tagged FKBP12WT or FKBP* (also referred to as dFKBP12* herein) were treated with indicated concentrations of dFKBP7 for 4 hours.
FIG. 8 is an immunoblot of cells treated with heterobifunctional compounds described in the present invention. Isogenic 293FT cells (CRBN-WT or CRBN−/−) expressing either FKBP12WT or FKBP* were treated with 100 nM of either dFKBP7 or dFKBP13 for 4 hours (Example 5).
FIG. 9 is an immunoblot of cells treated with heterobifunctional compounds described in the present invention. Isogenic 293FT cells (CRBN-WT or CRBN−/−) expressing HA-tagged FKBP* were treated with the indicated dose of dFKBP13 for 4 hours (Example 6).
FIG. 11 is an immunoblot of cells treated with heterobifunctional compounds described in the present invention. 293FT cells (CRBN-WT) expressing FKBP* were pretreated with 1 uM Carfilzomib (proteasome inhibitor), 0.5 uM MLN4924 (neddylation inhibitor), and 10 uM Lenalidomide (CRBN binding ligand) for two hours prior to a 4 hour treatment with dFKBP13 (Example 8). Degradation of HA-tagged FKBP* by dFKBP13 was rescued by the proteasome inhibitor Carfilzomib, establishing a requirement for proteasome function.
The dTAG is predicated on the selectivity of FKBP* specific ligands over endogenous, wild type FKBP. In 293T cells expressing wild type FKBP12 or FKBP*, dFKBP7 induces targeted degradation only in FKBP* expressing cells. An immunoblot of cells treated with bi-functional molecules described in the present invention was performed. 293FT cells (CRBN-WT or CRBN−/−) expressing either HA-tagged FKBP12WT or FKBP* were treated with indicated concentrations of dFKBP7 for 4 hours.
In 293T cells expressing wild type FKBP12 or FKBP*, treatment with dFKBP7 and dFKBP13 induces targeted degradation only in FKBP* expressing cells. Isogenic 293FT cells (CRBN-WT or CRBN−/−) were engineered to express either FKBP12WT or FKBP*. Cells were treated with 100 nM of either dFKBP7 or dFKBP13 for 4 hours before lysates were prepared for western immunoblot analysis.
In an effort to define the optimal concentration of dFKB13 heterobifunctional compounds to induce degradation of FKBP*, degradation was measured upon treatment with increasing concentrations of dFKBP13. Isogenic 293FT cells (CRBN-WT or CRBN−/−) were engineered to expressed HA-tagged FKBP*. Cells were treated with the indicated dose of dFKBP13 for 4 hours before lysates were prepared for western immunoblot analysis.
293FT cells (CRBN-WT) were engineered to express FKBP*. Cells were pretreated with 1 uM Carfilzomib (proteasome inhibitor), 0.5 uM MLN4924 (neddylation inhibitor), and 10 uM Lenalidomide (CRBN binding ligand) for two hours prior to a 4-hour treatment with dFKBP13. Lysates were prepared and western immunoblot analysis performed. Degradation of HA-tagged FKBP* by dFKBP13 was rescued by the proteasome inhibitor Carfilzomib, establishing a requirement for proteasome function.

In experiment [1] the test system is KRAS signaling (pMEK and pAKT). Briefly: Immunoblot of downstream surrogates of KRAS signaling in NIH3T3 cells expressing FKBP*-KRASG12V. Particulars: NIH3T3 cells expressing dTAG-KRASG12V; 1 μM, 24 hours. The protocol:
(§1) FIG. 19 is an immunoblot of NIH3T3 cells expressing KRASG12V allele fused to FKBP* in the N-terminus or C-terminus. Cells were treated with 500 nM dFKBP7 for the indicated time. Cells were harvested and immunoblotted to measure degradation of FKBP*-KRASG12V and downstream surrogates of KRAS signaling (e.g. pMEK and pAKT).
FIG. 20 is an immunoblot of NIH3T3 cells expressing FKBP* fused to the N-terminus of KRASG12V treated with 1 uM of the indicated dFKBP heterobifunctional compounds for 24 hours. Cells were harvested and immunoblotted to measure degradation of FKBP*-KRASG12V and downstream surrogates of KRAS signaling (e.g. pMEK and pAKT).
FIG. 21 is an immunoblot of NIH3T3 cells expressing FKBP* fused to the N-terminus of KRASG12V treated with the indicated concentrations of dFKBP13 for 24 hours. Cells were harvested and immunoblotted to measure degradation of FKBP*-KRASG12V and downstream surrogates of KRAS signaling (e.g. pMEK and pAKT).
FIG. 22 is an immunoblot of NIH3T3 cells expressing FKBP* fused to the N-terminus of KRASG12V treated with 1 uM dFKBP13 for the indicated time. Cells were harvested and immunoblotted to measure degradation of FKBP*-KRASG12V and downstream surrogates of KRAS signaling (e.g. pMEK and pAKT).
Cells were treated with 500 nM dFKBP7 for the indicated time. […]

The subject of the next experiment is FKBP*-KRASG12V. Briefly: Immunoblot of FKBP*-KRASG12V degradation in NIH3T3 cells. The following applies: NIH3T3 cells expressing dTAG-KRASG12V; 1 μM, 24 hours. As to the method: as §1
(§2) Cells were harvested and immunoblotted to measure degradation of FKBP*-KRASG12V and downstream surrogates of KRAS signaling (e.g. pMEK and pAKT).
as §2, §2
Cells were treated with 500 nM dFKBP7 for the indicated time. Cells were harvested and immunoblotted to measure degradation of FKBP*-KRAS and downstream surrogates of KRAS signaling (e.g. pMEK and pAKT).
(§3) Cells were harvested and immunoblotted to measure degradation of FKBP*-KRAS and downstream surrogates of KRAS signaling (e.g. pMEK and pAKT).
as §3
To evaluate the kinetic control of targeted degradation of dTAG-KRAS, dFKBP13 was administered by increased duration. […]

T1 sequence (P62942 whole entry F37V): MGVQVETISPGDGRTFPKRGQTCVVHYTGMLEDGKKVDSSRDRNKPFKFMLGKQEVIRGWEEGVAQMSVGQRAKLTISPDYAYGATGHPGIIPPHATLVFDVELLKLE

Take `Nc1cccc2c1CN(C1CCC(=O)NC1=O)C2=O` (centres unmarked) [Lenalidomide]: the “Effect of pretreatment on dFKBP13-induced degradation of HA-tagged FKBP*” value (from here on “Effect of pretreatment”) on FKBP* is “abolished dFKBP13-dependent FKBP* degradation”.

As to `NS(=O)(=O)OC[C@@H]1C[C@@H](n2ccc3c(N[C@H]4CCc5ccccc54)ncnc32)C[C@@H]1O` [MLN4924], the “Effect of pretreatment” value on FKBP* is given as “rescued HA-tagged FKBP*”.

As for `CC[C@H](C(=O)N1CCCC[C@H]1C(=O)O[C@H](CCc1ccc(OC)c(OC)c1)c1cccc(OCC(=O)NCCCCCCCCNC(=O)COc2cccc3c2C(=O)N(C2CCC(=O)NC2=O)C3=O)c1)c1cc(OC)c(OC)c(OC)c1` (some centres unmarked) [dFKBP9], the “Inhibition of downstream signaling (pMEK, pAKT)” value in experiment [1] is listed as “inhibition of downstream signaling”. The “Degradation of FKBP*-KRAS” value with FKBP*-KRASG12V is reported as “potent degradation of FKBP*-KRAS”.

As for `CC(C)C[C@H](NC(=O)[C@H](CCc1ccccc1)NC(=O)CN1CCOCC1)C(=O)N[C@@H](Cc1ccccc1)C(=O)N[C@@H](CC(C)C)C(=O)[C@@]1(C)CO1` [Carfilzomib], at FKBP*, the “Effect of pretreatment” value is listed as “rescued”.
